# Reference: the supplement of paper PMC10307832
# What was measured:
# Assay in all cases: relative viability (nuclei count vs DMSO), 5 days (fraction); higher = more cells survive
# [1] = compound: COc1cccc2c1C(=O)c1c(O)c3c(c(O)c1C2=O)C[C@@](O)(C(=O)CO)C[C@@H]3O[C@H]1C[C@H](N)[C@H](O)[C@H](C)O1 [Doxorubicin] + CC1(C)CCC(c2ccc(Cl)cc2)=C(CN2CCN(c3ccc(C(=O)NS(=O)(=O)c4ccc(N[C@H](CCN5CCOCC5)CSc5ccccc5)c(S(=O)(=O)C(F)(F)F)c4)cc3)CC2)C1 [Navitoclax] (partner 0.5 µM)
# In short: (§1)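 Relative viability is defined as nuclei in treated wells over nuclei in vehicle wells. Duplicate plates were run and medians reported. Lung cancer cell lines in 1536-well plates were dosed by pin tool one day after seeding, with one drug or with a fixed anchor-drug dose plus five library-drug doses (not always all listed) in √10 steps, and nuclei were counted after 5 days.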
# [2] = compound: COC1=C(C=C(C=C1)C2=CC3=NC=CN3C(=N2)NC4=C(C=CC=N4)C(=O)N)OC [BAY61-3606] + N=C(N)NC(=N)NCCc1ccccc1 [Phenformin] (partner 250 µM)
# In short: as §1
# [3] = compound: COC1=C(C=C(C=C1)C2=CC3=NC=CN3C(=N2)NC4=C(C=CC=N4)C(=O)N)OC [BAY61-3606] + CC(=O)Nc1cccc(-n2c(=O)n(C3CC3)c(=O)c3c(Nc4ccc(I)cc4F)n(C)c(=O)c(C)c32)c1 [Trametinib] (partner 0.02 µM)
# In short: as §1
# [4] = compound: COC1=C(C=C(C=C1)C2=CC3=NC=CN3C(=N2)NC4=C(C=CC=N4)C(=O)N)OC [BAY61-3606] + Nc1ncn([C@H]2C[C@H](O)[C@@H](CO)O2)c(=O)n1 [Decitabine] (partner 2 µM)
# In short: as §1
Cell Line,relative viability ([1]; first compound 0.001 µM),relative viability ([1]; first compound 0.003162 µM),relative viability ([1]; first compound 0.01 µM),relative viability ([1]; first compound 0.03162 µM),relative viability ([1]; first compound 0.1 µM),relative viability ([2]; first compound 0.02 µM),relative viability ([2]; first compound 0.06325 µM),relative viability ([2]; first compound 0.2 µM),relative viability ([2]; first compound 0.6325 µM),relative viability ([2]; first compound 2 µM),relative viability ([3]; first compound 0.02 µM),relative viability ([3]; first compound 0.06325 µM),relative viability ([3]; first compound 0.2 µM),relative viability ([3]; first compound 0.6325 µM),relative viability ([3]; first compound 2 µM),relative viability ([4]; first compound 0.02 µM),relative viability ([4]; first compound 0.06325 µM),relative viability ([4]; first compound 0.2 µM),relative viability ([4]; first compound 0.6325 µM),relative viability ([4]; first compound 2 µM)
NCI-H1355,0.982,1.1,0.911,0.904,1.06,0.484,0.368,0.406,0.448,0.41,0.424,0.447,0.409,0.46,0.345,0.391,0.377,0.389,0.359,0.361
NCI-H3122,1.05,1.01,0.973,1.02,1.02,0.418,0.308,0.386,0.42,0.384,0.235,0.24,0.246,0.242,0.249,0.463,0.559,0.494,0.347,0.511
NCI-H2009,1.21,1.15,1.17,0.962,0.604,0.524,0.38,0.469,0.524,0.424,0.318,0.229,0.378,0.303,0.206,0.368,0.359,0.352,0.365,0.415
NCI-H520,1.06,1.29,1.02,0.886,1,0.552,0.446,0.659,0.67,0.51,0.685,0.704,0.751,0.85,0.644,0.508,0.67,0.515,0.518,0.557
SW 1573,0.849,1.09,1.04,0.526,0.196,0.288,0.336,0.342,0.328,0.166,0.566,0.668,0.533,0.578,0.341,0.526,0.553,0.467,0.511,0.325
HARA,1.17,1.09,1.18,1.05,1.15,0.433,0.35,0.432,0.494,0.369,0.6,0.52,0.781,0.724,0.54,0.515,0.512,0.67,0.688,0.585
